Where two headings read alike, the source gives them in different places.
Key:
IRAK4 = IRAK4 (Homo sapiens (Human), UniProt Q9NWZ3); test: IRAK4 Inhibition Assay; assay type: biochemical; details: ATP 500 μM; IRAK4 0.6 nM; 60 min at room temperature
Procedure: The assays were performed in U-bottom 384-well plates. […] The reaction was initiated by the combination of IRAK4 with substrates and test compounds. The reaction was incubated at room temperature for 60 min. and terminated by adding 45 μL of 35 mM EDTA to each sample. The reaction mixture was analyzed on the Caliper LABCHIP® 3000 (Caliper, Hopkinton, Mass.) by electrophoretic separation of the fluorescent substrate and phosphorylated product.

[1] = test system: TLR2 induced IL-6 in peripheral blood mononuclear cells (PBMCs); test: PBMC TLR2 Induced IL-6 Assay; assay type: cell-based, human; details: for IC50: read-out: Cell IC50; for EC50: EC50 determinations are indicated with an asterisk, read-out: Cell EC50 (asterisk)
Outline: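 Human PBMCs (250000 cells/well) in RPMI with 10% heat-inactivated FCS pre-treated with compound for 30 min at 37° C, then stimulated 5 h with 10 μg/ml lipoteichoic acid. Supernatant IL-6 measured by ELISA and reported as IC50 or EC50.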

[2] = Homo sapiens, PBMC, 5 h, human PBMCs, 10 μg/ml lipoteichoic acid for 5 hours, IL-6 by ELISA, value without asterisk
[3] = human PBMCs, 10 μg/ml lipoteichoic acid for 5 hours, IL-6 by ELISA, value without asterisk
[4] = Homo sapiens, PBMC, 5 h, human PBMCs, 10 μg/ml lipoteichoic acid for 5 hours, IL-6 by ELISA

Sequence of IRAK4 (Q9NWZ3 whole entry, species assumed): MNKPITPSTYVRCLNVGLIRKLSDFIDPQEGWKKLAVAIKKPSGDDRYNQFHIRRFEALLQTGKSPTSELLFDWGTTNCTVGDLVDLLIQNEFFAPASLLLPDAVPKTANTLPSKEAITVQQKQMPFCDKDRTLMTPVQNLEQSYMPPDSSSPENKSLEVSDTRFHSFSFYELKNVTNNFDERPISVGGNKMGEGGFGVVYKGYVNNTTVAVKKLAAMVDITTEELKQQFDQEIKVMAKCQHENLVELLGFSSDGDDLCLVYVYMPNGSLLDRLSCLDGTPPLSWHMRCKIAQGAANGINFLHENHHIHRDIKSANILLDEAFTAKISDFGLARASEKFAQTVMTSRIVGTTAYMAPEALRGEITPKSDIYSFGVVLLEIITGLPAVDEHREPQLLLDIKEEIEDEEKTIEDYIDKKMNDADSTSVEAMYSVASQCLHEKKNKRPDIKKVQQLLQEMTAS

SMILES	IC50 (IRAK4) [nM]	IC50 [1, 2] [nM]	IC50 [1, 3] [nM]	EC50 [1, 4] [nM]	IC50 ([1]; Homo sapiens, PBMC, 5 h) [nM]
CCNc1cc(Nc2ccc3ncc(F)cc3n2)ncc1C(=O)NC[C@@H](F)C(C)(C)O [Example 437]	4.9	214	–	–	–
CCNc1cc(Nc2nc3ccnn3cc2F)ncc1C(=O)NC1CCC(C(C)(C)O)CC1 (stereo not shown) [Example 492]	12.1	–	–	454	–
Cc1cn2nccc2cc1Nc1cc(NC(C)C)c(C(=O)NC[C@@H](F)C(C)(C)O)cn1 [Example 487]	8.1	–	–	632	–
CC(C)(O)[C@H](F)CNC(=O)c1cnc(Nc2ccn3nccc3c2)cc1NC1CCC(F)(F)C1 (stereo partly shown) [Example 293]	1.8	310	–	–	–
Cc1cn2nc(Nc3cc(NC4CC4)c(C(=O)NC[C@@H](F)C(C)(C)O)cn3)ccc2n1 [Example 278]	10.8	618	–	–	–
CC(C)Nc1cc(Nc2nc3scnc3cc2F)ncc1C(=O)NC[C@@H](F)C(C)(C)O [Example 455]	0.8	573	–	–	–
CC(C)(O)[C@H](F)CNC(=O)c1cnc(Nc2nc3scnc3cc2F)cc1NC1CCOCC1F (stereo partly shown) [Example 469]	3.1	476	–	–	–
CCC(C)Nc1cc(Nc2ccc3ncsc3c2)ncc1C(=O)NC[C@@H](F)C(C)(C)O (stereo partly shown) [Example 138]	1.9	–	302	–	–
CC(C)(O)[C@H](F)CNC(=O)c1cnc(Nc2ccn3nccc3c2)cc1NC1CC(F)C1 (stereo partly shown) [Example 296]	7.1	384	–	–	–
CC(C)Nc1cc(Nc2ccc3ncsc3c2)ncc1C(=O)NCC[C@@H](C)NC(=O)C1CCCC1 [Example 184]	1.9	–	–	–	215
CC(C)(O)[C@H](F)CNC(=O)c1cnc(Nc2ccn3nccc3c2)cc1NCCC1CC1 [Example 292]	7	427	–	–	–
CC(C)(O)[C@H](F)CNC(=O)c1cnc(Nc2ccc3ncccc3n2)cc1NC1CCOCC1 [Example 430]	1.6	102	–	–	–
CNC(=O)[C@H]1CC[C@H](NC(=O)c2cnc(Nc3nc4ccnn4cc3F)cc2NC2CC2)CC1 [Example 508]	10.2	10000	–	–	–
CC(C)Nc1cc(Nc2ccc3ncc(Cl)cc3n2)ncc1C(=O)NC[C@@H](F)C(C)(C)O [Example 374]	3.1	271	–	–	–
CC(C)(O)[C@H](F)CNC(=O)c1cnc(Nc2ccc3ncoc3c2)cc1N[C@@H]1CCCC1F (stereo partly shown) [Example 354]	4.4	402	–	–	–
CC(C)(O)[C@H](F)CNC(=O)c1cnc(Nc2ccn3nccc3c2)cc1NC1CCOCC1F (stereo partly shown) [Example 298]	7.9	596	–	–	–
CC(C)(C)Nc1cc(Nc2ccn3nccc3c2)ncc1C(=O)NC[C@@H](F)C(C)(C)O [Example 291]	7	283	–	–	–
CC(C)(O)[C@H](F)CNC(=O)c1cnc(Nc2ccc3ncsc3c2)cc1NC1COCCC1F (stereo partly shown) [Example 235]	1.7	263	–	–	–

SMILES	IC50 (IRAK4) [nM]	IC50 [1, 2] [nM]	IC50 [1, 3] [nM]	EC50 [1, 4] [nM]	IC50 ([1]; Homo sapiens, PBMC, 5 h) [nM]
CC(C)(O)[C@H](F)CNC(=O)c1cnc(Nc2ccc3ncoc3c2)cc1NCC(F)(F)F [Example 110]	12.6	728	–	–	–
CC(C)(O)[C@H](F)CNC(=O)c1cnc(Nc2cc3nccnc3cc2F)cc1NC1CCC1 [Example 500]	5.4	–	–	228	–
CC(C)C(O)C(F)CNC(=O)c1cnc(Nc2ccc3ncsc3c2)cc1NC(c1ccccc1)C(O)CO (stereo not shown) [Example 27]	3	86	–	–	–
CC(C)(O)[C@H](F)CNC(=O)c1cnc(Nc2ccc3ncsc3c2)cc1NC1CCOCC1F (stereo partly shown) [Example 230]	5.1	–	274	–	–
Cc1nc2ccc(Nc3cc(NC4CCCC4F)c(C(=O)NC[C@@H](F)C(C)(C)O)cn3)cc2s1 (stereo partly shown) [Example 350]	2.7	–	148	–	–
CC(C)(O)[C@H](F)CNC(=O)c1cnc(Nc2ccn3nccc3n2)cc1NC1CCC(F)C1 (stereo partly shown) [Example 248]	3.1	–	176	–	–
CC(=O)N[C@H]1CC[C@H](NC(=O)c2cnc(Nc3ccc4ncsc4n3)cc2NC2CCOCC2)CC1 [Example 514]	1.8	–	–	26	–
Cc1cc2nc(Nc3cc(NC4CCC(F)C4)c(C(=O)NC[C@@H](F)C(C)(C)O)cn3)ccn2n1 (stereo partly shown) [Example 268]	6.1	–	376	–	–
CC(C)(O)[C@H](F)CNC(=O)c1cnc(Nc2nc3ccnn3cc2F)cc1NC1CCCCC1F (stereo partly shown) [Example 479]	4.3	473	–	–	–
CC(C)(F)CNc1cc(Nc2ccc3ncc(C#N)cc3n2)ncc1C(=O)NC[C@@H](F)C(C)(C)O [Example 373]	5.1	431	–	–	–
CC(C)(O)[C@H](F)CNC(=O)c1cnc(Nc2ccc3ncsc3c2)cc1NC1CCOCC1 [Example 52]	2.7	116	–	–	–
CC(C)(O)[C@H](F)CNC(=O)c1cnc(Nc2ccn3nccc3c2)cc1NC1CC1 [Example 92]	4.8	177	–	–	–
CC(C)(O)[C@H](F)CNC(=O)c1cnc(Nc2ncc3ncccc3n2)cc1NC1CCOCC1 [Example 371]	6	604	–	–	–
CC(C)(O)[C@H](F)CNC(=O)c1cnc(Nc2ccc3ncsc3c2)cc1NC1CCSCC1 [Example 384]	3.5	180	–	–	–
CCOC(=O)c1cn2c(n1)sc1cc(Nc3cc(NC4CCCC4)c(C(=O)NC)cn3)ccc12 [Example 3]	17.1	180	–	–	–
CC(C)(O)[C@H](F)CNC(=O)c1cnc(Nc2ccc3ncsc3n2)cc1NC1CCOCC1F (stereo partly shown) [Example 417]	10.9	–	72	–	–
CC(C)(F)CNc1cc(Nc2ccc3ncccc3n2)ncc1C(=O)NC[C@@H](F)C(C)(C)O [Example 134]	8.8	447	–	–	–
CNC(=O)[C@H]1CC[C@H](NC(=O)c2cnc(Nc3nc4ccnn4cc3F)cc2NC2CCOCC2)CC1 [Example 509]	9.5	1200	–	–	–

Further lines, with some results ahead:

IC50 (IRAK4) [nM]	SMILES	IC50 [1, 2] [nM]	IC50 [1, 3] [nM]	EC50 [1, 4] [nM]	IC50 ([1]; Homo sapiens, PBMC, 5 h) [nM]
5.8	O=C(NC[C@@H](F)CO)c1cnc(Nc2ccc3ncsc3c2)cc1NC1CCCC1O (stereo partly shown) [Example 337]	799	–	–	–
4.8	CC(C)(O)[C@H](F)CNC(=O)c1cnc(Nc2ccc3ncsc3c2)cc1N[C@H]1CCCC(O)C1 (stereo partly shown) [Example 328]	–	491	–	–
2.5	CC(C)Nc1cc(Nc2ccc3ncsc3c2)ncc1C(=O)NCC[C@@H](C)NC(=O)CC1CCCCC1(F)F (stereo partly shown) [Example 188]	508	–	–	–
13.1	CC(C)Nc1cc(Nc2ccc3ncsc3c2)ncc1C(=O)NC1CCCC(C(C)(C)O)C1 (stereo not shown) [Example 425]	560	–	–	–
7.8	CC(C)Nc1cc(Nc2ccc3ncsc3c2)ncc1C(=O)NCCc1ccc(C(N)=O)cc1 [Example 11]	726	–	–	–
6.9	CC(C)Nc1cc(Nc2ccc3ncsc3c2)ncc1C(=O)NC[C@@H](F)C(C)(O)C(F)(F)F (stereo partly shown) [Example 18]	–	269	–	–
3.4	CC(C)Nc1cc(Nc2ccc3ncsc3c2)ncc1C(=O)N[C@H]1CC[C@H](C(=O)NC23CCC(O)(CC2)C3)CC1 [Example 220]	328	–	–	–
7.3	CC(C)C(O)[C@H](F)CNC(=O)c1cnc(Nc2ccc3ncsc3c2)cc1NC1CC1 (stereo partly shown) [Example 26]	–	121	–	–
7.5	CC(=O)NCCNC(=O)c1cnc(Nc2ccc3ncsc3c2)cc1NC1CCCC1 [Example 152]	596	–	–	–
4.8	CC(C)Nc1cc(Nc2ccc3ncsc3c2)ncc1C(=O)NC1CCN(C(=O)c2cccnc2)CC1 [Example 219]	447	–	–	–
5.4	CC(C)Nc1cc(Nc2ccc3ncsc3c2)ncc1C(=O)N[C@H]1CC[C@H]([N+](=O)[O-])CC1 [Example 523, 6-(benzo[d]thiazol-6-ylamino)-4-(isopropylamino)-N-((trans)-4-nitrocyclohexyl)nicotinamide]	–	–	365	–
24.5	CNC(=O)c1cnc(Nc2ccc3ncsc3c2)cc1NC1C2CC3CC1CC(O)(C3)C2 (single isomer, unassigned) [Example 148]	–	456	–	–
10	CC(C)(O)CCNC(=O)c1cnc(Nc2ccc3ncsc3c2)cc1NC1CC1 [Example 9]	289	–	–	–
4.1	CC(C)Nc1cc(Nc2ccc3ncsc3c2)ncc1C(=O)NCCC(C)(C)O [Example 8]	290	–	–	–
5.1	CC(C)(O)[C@H](F)CNC(=O)c1cnc(Nc2ccc3ncsc3c2)cc1NC1C2CCCC1CCC2 (stereo partly shown) [Example 419]	184	–	–	–
6.1	CC(C)Nc1cc(Nc2ccc3ncsc3c2)ncc1C(=O)NCC[C@@H](C)NC(=O)CN(C)C [Example 192]	264	–	–	–
4.5	CC(C)Nc1cc(Nc2ccc3ncsc3c2)ncc1C(=O)N[C@H]1CC[C@H](NC(=O)c2ccccn2)CC1 [Example 201]	499	–	–	–
6.8	CC1(O)CCC(Nc2cc(Nc3ccc4ncsc4c3)ncc2C(=O)NC[C@@H](F)C(C)(C)O)C1 (stereo partly shown) [Example 50]	571	–	–	–
9.3	CC(C)(O)[C@@H](F)CNC(=O)c1cnc(Nc2ccc3ncsc3c2)cc1NC1CC1 [Example 366, (S)-6-(benzo[d]thiazol-6-ylamino)-4-(cyclopropylamino)-N-(2-fluoro-3-hydroxy-3-methylbutyl)nicotinamide]	734	–	–	–
3.1	CC(=O)NC12CCC(Nc3cc(Nc4ccc5ncsc5c4)ncc3C(=O)NC[C@@H](F)C(C)(C)O)(CC1)C2 [Example 139]	310	–	–	–

From patent publication US9546153B2, “Bicyclic heterocycle substituted pyridyl compounds useful as kinase modulators” (BRISTOL-MYERS SQUIBB COMPANY, priority 2012, dated 2017)
